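1) Cells in 96-well plates. 2) Compound, 48 h, 5 concentrations. 3) Linear interpolation between surrounding doses. 4) Unreached endpoint = highest concentration. Definition used: TGI = concentration required for complete inhibition of growth.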
Legend:
Experiment in all cases: inhibition of tumour cell growth, NCI panel, 48 h
[1] = tested on: UACC-62 melanoma
[2] = tested on: SK-MEL-28 melanoma
[3] = tested on: NCI/ADR-RES ovarian
[4] = tested on: CCRF-CEM leukemia
[5] = tested on: HOP-62 NSCLC
[6] = tested on: T-47D breast
[7] = tested on: OVCAR-3 ovarian
[8] = tested on: NCI-H522 lung
[9] = tested on: HOP-92 NSCLC
[10] = tested on: SR leukemia
[11] = tested on: HL-60(TB) leukemia
[12] = tested on: MDA-MB-435
[13] = tested on: HS 578T breast
[14] = tested on: 786-0 renal
[15] = tested on: ACHN renal
[16] = tested on: LOX IMVI melanoma
[17] = tested on: DU-145 prostate
[18] = tested on: OVCAR-4 ovarian
[19] = tested on: SK-MEL-5 melanoma
[20] = tested on: SK-MEL-2 melanoma
[21] = tested on: BT-549 breast
[22] = tested on: OVCAR-5 ovarian
[23] = tested on: SK-OV-3 ovarian
[24] = tested on: HCC-2998 colon
[25] = tested on: OVCAR-8 ovarian
[26] = tested on: A498 renal
[27] = tested on: HCT-116 colon
[28] = tested on: SF-295 CNS
[29] = tested on: COLO 205 colon
[30] = tested on: MOLT-4 leukemia
[31] = tested on: NCI-H23 lung
[32] = tested on: MDA-MB-231 breast
[33] = tested on: SW-620 colon
[34] = tested on: MCF7 breast
[35] = tested on: HCT-15 colon
[36] = tested on: UO-31 renal
[37] = tested on: RPMI-8226 leukemia
[38] = tested on: A549 NSCLC
[39] = tested on: SNB-75 CNS
[40] = tested on: SNB-19 CNS
[41] = tested on: U251 CNS
[42] = tested on: SF-539 CNS
[43] = tested on: SN12C renal
[44] = tested on: TK-10 renal
[45] = tested on: UACC-257 melanoma
[46] = tested on: PC-3 prostate
[47] = tested on: IGROV1 ovarian
[48] = tested on: RXF 393 renal
[49] = tested on: K-562 leukemia
[50] = tested on: NCI-H226 lung
[51] = tested on: KM12 colon
[52] = tested on: M14 melanoma
[53] = tested on: HT29 colon
[54] = tested on: SF-268 CNS
[55] = tested on: EKVX NSCLC
[56] = tested on: MDA-N
[57] = tested on: MALME-3M melanoma
[58] = tested on: NCI-H460 lung
[59] = tested on: CAKI-1 renal

SMILES: O=C1CC(c2ccccc2Cl)C2(C(=O)NC(=S)NC2=O)C(c2ccccc2Cl)C1 (stereo unspecified)
- TGI [1]: 40.8 µM
- TGI [2]: > 100 µM
- TGI [3]: > 100 µM
- TGI [4]: > 100 µM
- TGI [5]: > 100 µM
- TGI [6]: 93.5 µM
- TGI [7]: 60 µM
- TGI [8]: 99.3 µM
- TGI [9]: 32.1 µM
- TGI [10]: > 100 µM
- TGI [11]: > 100 µM
- TGI [12]: 34.4 µM
- TGI [13]: 22.8 µM
- TGI [14]: 51 µM
- TGI [15]: 55.7 µM
- TGI [16]: 36.4 µM
- TGI [17]: > 100 µM
- TGI [18]: > 100 µM
- TGI [19]: 58.6 µM
- TGI [20]: 62 µM
- TGI [21]: 98.2 µM
- TGI [22]: > 100 µM
- TGI [23]: > 100 µM
- TGI [24]: 52.1 µM
- TGI [25]: 49.6 µM
- TGI [26]: 40.4 µM
- TGI [27]: 41 µM
- TGI [28]: 66.6 µM
- TGI [29]: > 100 µM
- TGI [30]: > 100 µM
- TGI [31]: 37.7 µM
- TGI [32]: 72.8 µM
- TGI [33]: > 100 µM
- TGI [34]: 40.2 µM
- TGI [35]: 53.6 µM
- TGI [36]: > 100 µM
- TGI [37]: > 100 µM
- TGI [38]: 65.5 µM
- TGI [39]: > 100 µM
- TGI [40]: 30.9 µM
- TGI [41]: 32.8 µM
- TGI [42]: > 100 µM
- TGI [43]: 65.8 µM
- TGI [44]: 0.206 µM
- TGI [45]: 30.6 µM
- TGI [46]: 81.8 µM
- TGI [47]: 77 µM
- TGI [48]: 32.8 µM
- TGI [49]: > 100 µM
- TGI [50]: 71.4 µM
- TGI [51]: 27.1 µM
- TGI [52]: 38.9 µM
- TGI [53]: > 100 µM
- TGI [54]: 38.3 µM
- TGI [55]: > 100 µM
- TGI [56]: > 100 µM
- TGI [57]: 31 µM
- TGI [58]: 42.9 µM

SMILES: Clc1ccc(-c2noc(CN3CCCCC3)n2)cc1
- TGI [1]: > 100 µM
- TGI [2]: > 100 µM
- TGI [3]: > 100 µM
- TGI [4]: > 100 µM
- TGI [5]: > 100 µM
- TGI [6]: > 100 µM
- TGI [7]: > 100 µM
- TGI [8]: > 100 µM
- TGI [9]: > 100 µM
- TGI [10]: > 100 µM
- TGI [11]: > 100 µM
- TGI [12]: > 100 µM
- TGI [59]: > 100 µM
- TGI [13]: > 100 µM
- TGI [14]: > 100 µM
- TGI [15]: > 100 µM
- TGI [17]: > 100 µM
- TGI [18]: > 100 µM
- TGI [19]: > 100 µM
- TGI [20]: > 100 µM
- TGI [21]: > 100 µM
- TGI [22]: > 100 µM
- TGI [23]: > 100 µM
- TGI [24]: > 100 µM
- TGI [25]: > 100 µM
- TGI [26]: > 100 µM
- TGI [27]: > 100 µM
- TGI [28]: > 100 µM
- TGI [29]: > 100 µM
- TGI [30]: > 100 µM
- TGI [31]: > 100 µM
- TGI [32]: > 100 µM
- TGI [33]: > 100 µM
- TGI [34]: > 100 µM
- TGI [35]: > 100 µM
- TGI [36]: > 100 µM
- TGI [37]: > 100 µM
- TGI [38]: > 100 µM
- TGI [39]: > 100 µM
- TGI [40]: > 100 µM
- TGI [41]: > 100 µM
- TGI [42]: > 100 µM
- TGI [43]: > 100 µM
- TGI [44]: > 100 µM
- TGI [45]: > 100 µM
- TGI [46]: > 100 µM
- TGI [47]: > 100 µM
- TGI [48]: > 100 µM
- TGI [49]: > 100 µM
- TGI [50]: > 100 µM
- TGI [51]: > 100 µM
- TGI [52]: > 100 µM
- TGI [53]: > 100 µM
- TGI [54]: > 100 µM
- TGI [55]: > 100 µM
- TGI [56]: > 100 µM
- TGI [57]: > 100 µM
- TGI [58]: > 100 µM
